Source: ChEMBL document CHEMBL3885861, “Open TG-GATES”

Species: Rattus norvegicus
Assay: Open TG-GATES - Regimen: Single
Format: toxicity, organism-based, Sprague-Dawley
Design: regimen Single, gender Male, age 6 weeks
Conditions: in vivo, po, 15 mg/kg, route gavage; for TC / TP / gamma-GTP / ALP / ALT / AST / BUN / CRE / Ca / Cl / DBIL / GLC / IP / K / LDH / Na / PL / RALB / TBIL: tissue Plasma; for APTT / Bas / Eos / Fbg / Hb / Ht / Lym / MCH / MCHC / MCV / Mono / Neu / PT / Plat / RBC / Ret / WBC: tissue Blood; for KIDNEY_L / KIDNEY_R / KIDNEY_TOTAL: tissue Kidney; for LIVER: tissue Liver

## O=P1(N(CCCl)CCCl)NCCCO1 (stereo not given) [CYCLOPHOSPHAMIDE ANHYDROUS]
3 h, dose level Low
  TC: 68.6 mg/dL
  TP: 5.2 g/dL
  gamma-GTP: 1.2 IU/L
6 h, dose level High
  TERMINAL_BW: 193.9 g
  APTT: 21.7 s
  Bas: 0%
  Eos: 0.6%
  Fbg: 313.4 mg/dL
  Hb: 13.3 g/dL
  Ht: 39.9%
  Lym: 79.4%
  MCH: 21.5 pg
  MCHC: 33.3%
  MCV: 64.8 fL
  Mono: 2.2%
  Neu: 17.4%
  PT: 15.6 s
  Plat: 122.7 x10_4/uL
  RBC: 616.8 x10_4/ul
  Ret: 9%
  WBC: 68.2 x10_2/uL
  KIDNEY_L: 0.8 g
  KIDNEY_R: 0.9 g
  KIDNEY_TOTAL: 1.7 g
  LIVER: 8.4 g
  ALP: 1569.4 IU/L
  ALT: 39.2 IU/L
  AST: 74.8 IU/L
  BUN: 10.2 mg/dL
  CRE: 0.1 mg/dL
  Ca: 10.7 mg/dL
  Cl: 106.8 meq/L
  DBIL: 0 mg/dL
  GLC: 185.8 mg/dL
  IP: 10.4 mg/dL
  K: 4.5 meq/L
  LDH: 216.8 IU/L
  Na: 143.2 meq/L
  PL: 144 mg/dL
  RALB: 2.9 g/dL
  TBIL: 0.032 mg/dL
  TC: 81.8 mg/dL
  TP: 5.4 g/dL
  gamma-GTP: 1.2 IU/L
6 h, dose level Low
  TERMINAL_BW: 190.6 g
  APTT: 20.3 s
  Eos: 1.2%
  Fbg: 302 mg/dL
  Hb: 13 g/dL
  Ht: 38.9%
  Lym: 80.6%
  MCH: 20.9 pg
  MCHC: 33.4%
  MCV: 62.4 fL
  Mono: 2.4%
  Neu: 15.8%
  PT: 13.9 s
  Plat: 115.7 x10_4/uL
  RBC: 624 x10_4/ul
  Ret: 8.9%
  WBC: 71.4 x10_2/uL
  KIDNEY_R: 0.8 g
  LIVER: 7.6 g
  ALP: 1365.4 IU/L
  ALT: 33.2 IU/L
  AST: 70.4 IU/L
  BUN: 8.4 mg/dL
  CRE: 0.2 mg/dL
  Ca: 10.9 mg/dL
  Cl: 107 meq/L
  DBIL: 0.014 mg/dL
  GLC: 168.2 mg/dL
  IP: 9 mg/dL
  K: 4.3 meq/L
  LDH: 83.8 IU/L
  Na: 142 meq/L
  PL: 141.6 mg/dL
  RALB: 2.5 g/dL
  TBIL: 0.072 mg/dL
  TC: 79 mg/dL
  TP: 5.3 g/dL
9 h, dose level High
  TERMINAL_BW: 185.5 g
  APTT: 20.7 s
  Bas: 0%
  Eos: 0.8%
  Fbg: 320.4 mg/dL
  Hb: 13.2 g/dL
  Ht: 39.3%
  Lym: 78%
  MCH: 21 pg
  MCHC: 33.6%
  MCV: 62.4 fL
  Mono: 2.2%
  Neu: 19%
  PT: 16.2 s
  Plat: 113.9 x10_4/uL
  RBC: 631 x10_4/ul
  Ret: 7.3%
  WBC: 57.8 x10_2/uL
  KIDNEY_L: 0.8 g
  KIDNEY_R: 0.9 g
  KIDNEY_TOTAL: 1.7 g
  LIVER: 7.5 g
  ALP: 1487.4 IU/L
  ALT: 34.8 IU/L
  AST: 67.4 IU/L
  BUN: 9.2 mg/dL
  CRE: 0.2 mg/dL
  Ca: 10.5 mg/dL
  Cl: 107.4 meq/L
  DBIL: 0.002 mg/dL
  GLC: 186 mg/dL
  IP: 10.1 mg/dL
  K: 3.9 meq/L
  LDH: 185.4 IU/L
  Na: 143.4 meq/L
  PL: 123.8 mg/dL
  RALB: 3 g/dL
  TBIL: 0.032 mg/dL
  TC: 69.2 mg/dL
  TP: 5.4 g/dL
9 h, dose level Low
  TERMINAL_BW: 184.1 g
  APTT: 16.7 s
  Eos: 1%
  Fbg: 285.6 mg/dL
  Hb: 12.7 g/dL
  Ht: 37.6%
  Lym: 75%
  MCH: 20.8 pg
  MCHC: 33.7%
  MCV: 61.8 fL
  Neu: 21.4%
  PT: 14 s
  Plat: 120.4 x10_4/uL
  RBC: 608.4 x10_4/ul
  Ret: 8.8%
  WBC: 67.8 x10_2/uL
  KIDNEY_R: 0.8 g
  KIDNEY_TOTAL: 1.6 g
  LIVER: 6.9 g
